Our source for the IC50 values is US20230082430A1 (C4 Therapeutics, Inc., priority 2019, published 2023).

Molecules are shown by their SMILES. pIC50: −log10 of the molar value.

The first test concerns NCIH929.1 cells. The test is described as follows: Cell viability assay for Table 2 (CellTiter-Glo 2.0, ATP quantification, 96 hr). It counts as cell-based. Particulars: 96 h. From the text: Cell Viability Assay for Table 2
CellTiter-Glo® 2.0 Assay was purchased from Promega (Madison, Wis., USA). NCIH929.1 cell line was purchased from ATCC (Manassas, Va., USA). Cell culture flasks and 384-well microplates were acquired from VWR (Radnor, Pa., USA).
(In general: ATP-based viability assays read luminescence as a measure of living cells.)
In general, pIC50 refers to the IC50 on a negative log10 scale, so that one unit is a factor of ten. Take `O=C1CCC(N2C(=O)c3cccc4cccc2c34)C(=O)N1` (stereo not drawn) [Compound 139, 3-(2-oxobenzo[cd]indol-1(2H)-yl)piperidine-2,6-dione]: the pIC50 was > 7.00.

Still in this test, the particulars now being: 96 h, NCIH929.1 cell viability, 96 hr, top concentration 1 μM, 14 points half log titration; read-out: IC50.
Turning to `CC(C)(C)OC(=O)N1CC2CC(C(=O)N3CCC(n4cc(Cc5ccc6c7c(cccc57)C(=O)N6C5CCC(=O)NC5=O)cn4)CC3)(C2)C1` (stereo not drawn) [Compound 292, tert-butyl 1-(4-(4-((1-(2,6-dioxopiperidin-3-yl)-2-oxo-1,2-dihydrobenzo[cd]indol-6-yl)methyl)-1H-pyrazol-1-yl)piperidine-1-carbonyl)-3-azabicyclo[3.1.1]heptane-3-carboxylate], the negative-log IC50 (pIC50) is > 9.00.
Turning to `CC(C)(C#N)C(=O)N1CCC(n2cc(Cc3ccc4c5c(cccc35)C(=O)N4C3CCC(=O)NC3=O)cn2)CC1` (stereo not drawn) [Compound 40, 3-(4-(4-((1-(2,6-dioxopiperidin-3-yl)-2-oxo-1,2-dihydrobenzo[cd]indol-6-yl)methyl)-1H-pyrazol-1-yl)piperidin-1-yl)-2,2-dimethyl-3-oxopropanenitrile], the pIC50 is > 9.00.
Same read-out and setting: in the case of `COC1(CN2CCC(n3cc(Cc4ccc5c6c(cccc46)C(=O)N5C4CCC(=O)NC4=O)cn3)CC2)CC1` (stereo not drawn) [Compound 66, 3-(6-((1-(1-((1-methoxycyclopropyl)methyl)piperidin-4-yl)-1H-pyrazol-4-yl)methyl)-2-oxobenzo[cd]indol-1(2H)-yl)piperidine-2,6-dione] it was > 9.00; in that of `CC(C)(C)OC(=O)N1CCC(n2cc(C(=O)c3ccc4c5c(cccc35)C(=O)N4C3CCC(=O)NC3=O)cn2)CC1` (stereo not drawn) [Compound 143, tert-butyl 4-(4-(1-(2,6-dioxopiperidin-3-yl)-2-oxo-1,2-dihydrobenzo[cd]indole-6-carbonyl)-1H-pyrazol-1-yl)piperidine-1-carboxylate], > 6.00; in that of `CC1(n2cc(Cc3ccc4c5c(cccc35)C(=O)N4C3CCC(=O)NC3=O)cn2)CCN(C(=O)C(C)(C)C(F)(F)F)CC1` (stereo not drawn) [Compound 82, 3-(6-((1-(4-methyl-1-(3,3,3-trifluoro-2,2-dimethylpropanoyl)piperidin-4-yl)-1H-pyrazol-4-yl)methyl)-2-oxobenzo[cd]indol-1(2H)-yl)piperidine-2,6-dione], > 9.00.
Regarding `O=C1CCC(N2C(=O)c3cccc4c(Cc5ccc(CN6CCC(Oc7ccc(F)cc7)CC6)cc5)ccc2c34)C(=O)N1` (stereo not drawn) [Compound 258, 3-(6-(4-((4-(4-fluorophenoxy)piperidin-1-yl)methyl)benzyl)-2-oxobenzo[cd]indol-1(2H)-yl)piperidine-2,6-dione], the negative logarithm of the IC50 (pIC50) is > 9.00.
Same read-out and setting: as for `CC(C)(C)OC(=O)N1CCC(c2ccc3c4c(cccc24)C(=O)N3C2CCC(=O)NC2=O)CC1` (stereo not drawn) [Compound 276, tert-butyl 4-[1-(2,6-dioxo-3-piperidyl)-2-oxo-benzo[cd]indol-6-yl]piperidine-1-carboxylate], the figure is < 6.00; as for `COC(c1cnn(C2CCN(C(=O)C3(C)CCC3)CC2)c1)c1ccc2c3c(cccc13)C(=O)N2C1CCC(=O)NC1=O` (stereo not drawn) [Compound 247, 3-[6-[methoxy-[1-[1-(1-methylcyclobutanecarbonyl)-4-piperidyl]pyrazol-4-yl]methyl]-2-oxo-benzo[cd]indol-1-yl]piperidine-2,6-dione], > 9.00.
Regarding `CC1(CN2CCC(n3nc(Cl)cc3Cc3ccc4c5c(cccc35)C(=O)N4C3CCC(=O)NC3=O)CC2)CCC1` (stereo not drawn) [Compound 206, 3-[6-[[5-chloro-2-[1-[(1-methylcyclobutyl)methyl]-4-piperidyl]pyrazol-3-yl]methyl]-2-oxo-benzo[cd]indol-1-yl]piperidine-2,6-dione], the pIC50 was > 9.00.
`CC1(CN2CCC(n3cc(Cc4ccc5c6c(cccc46)C(=O)N5C4CCC(=O)NC4=O)cn3)C(F)(F)C2)CCC1` (single isomer, unassigned) [Compound 186, 3-[6-[[1-[3,3-difluoro-1-[(1-methylcyclobutyl)methyl]-4-piperidyl]pyrazol-4-yl]methyl]-2-oxo-benzo[cd]indol-1-yl]piperidine-2,6-dione]: the negative-log IC50 (pIC50) is > 9.00.
On the same count and under the same terms, as for `CC(c1cnn(C2CCN(C(=O)C3(C)CCC3)CC2)c1)c1ccc2c3c(cccc13)C(=O)N2C1CCC(=O)NC1=O` (single isomer, unassigned) [Compound 148, 3-(6-(1-(1-(1-(1-methylcyclobutane-1-carbonyl)piperidin-4-yl)-1H-pyrazol-4-yl)ethyl)-2-oxobenzo[cd]indol-1(2H)-yl)piperidine-2,6-dione], the figure is > 9.00.
As to `O=C1CCC(N2C(=O)c3cccc4c(Cc5cnn(C6CCN(C(=O)C78COC(C7)C8)CC6)c5)ccc2c34)C(=O)N1` (stereo not drawn) [Compound 37, 3-(6-((1-(1-(2-oxabicyclo[2.1.1]hexane-4-carbonyl)piperidin-4-yl)-1H-pyrazol-4-yl)methyl)-2-oxobenzo[cd]indol-1(2H)-yl)piperidine-2,6-dione], the pIC50 is > 9.00.
Same read-out and setting: as for `CC(C)(C)OC(=O)N1CCC(C)(n2cc(C(=O)c3ccc4c5c(cccc35)C(=O)N4C3CCC(=O)NC3=O)cn2)CC1` (stereo not drawn) [Compound 241, 4-{4-[1-(2,6-Dioxo-piperidin-3-yl)-2-oxo-1,2-dihydro-benzo[cd]indole-6-carbonyl]-pyrazol-1-yl}-4-methyl-piperidine-1-carboxylic acid tert-butyl ester], the figure is > 7.00.
On to `CC1(n2cc(Cc3ccc4c5c(cccc35)C(=O)N4C3CCC(=O)NC3=O)cn2)CCN(C(=O)C23COC(C2)C3)CC1` (single isomer, unassigned) [Compound 238, 3-[6-[[1-[4-methyl-1-(2-oxabicyclo[2.1.1]hexane-4-carbonyl)-4-piperidyl]pyrazol-4-yl]methyl]-2-oxo-benzo[cd]indol-1-yl]piperidine-2,6-dione], for which the negative-log IC50 (pIC50) was > 9.00.
Take `CC1(CN2CCC(n3cc(Cc4ccc5c6c(cccc46)C(=O)N5C4CCC(=O)NC4=O)c(Cl)n3)CC2)CCC1` (stereo not drawn) [Compound 200, 3-[6-[[3-chloro-1-[1-[(1-methylcyclobutyl)methyl]-4-piperidyl]pyrazol-4-yl]methyl]-2-oxo-benzo[cd]indol-1-yl]piperidine-2,6-dione]: the negative-log IC50 (pIC50) is > 9.00.
On to `O=C1CCC(N2C(=O)c3cccc4c(Cc5cnn(C6CCN(C7CCCC78CCC8)CC6)c5)ccc2c34)C(=O)N1` (single isomer, unassigned) [Compound 178, 3-[2-oxo-6-[[1-[1-[spiro[3.4]octan-8-yl]-4-piperidyl]pyrazol-4-yl]methyl]benzo[cd]indol-1-yl]piperidine-2,6-dione], for which the pIC50 is > 9.00.
On to `O=C1CCC(N2C(=O)c3cccc4c(Cc5ccc(CN6Cc7ccccc7C6)cc5)ccc2c34)C(=O)N1` (stereo not drawn) [Compound 117, 3-(6-(4-(isoindolin-2-ylmethyl)benzyl)-2-oxobenzo[cd]indol-1(2H)-yl)piperidine-2,6-dione], for which the negative-log IC50 (pIC50) is > 9.00.
Regarding `COCC(C)(C)C(=O)N1CCC(C)(n2cc(Cc3ccc4c5c(cccc35)C(=O)N4C3CCC(=O)NC3=O)cn2)CC1` (stereo not drawn) [Compound 85, 3-(6-((1-(1-(3-methoxy-2,2-dimethylpropanoyl)-4-methylpiperidin-4-yl)-1H-pyrazol-4-yl)methyl)-2-oxobenzo[cd]indol-1(2H)-yl)piperidine-2,6-dione], the pIC50 is > 9.00.
For the molecule `C#CCNc1ccc2c3c(cccc13)C(=O)N2C1CCC(=O)NC1=O` (stereo not drawn) [Compound 136, 3-[2-oxo-6-(prop-2-ynylamino)benzo[cd]indol-1-yl]piperidine-2,6-dione], the pIC50 was < 6.00.
With `O=C1CCC(N2C(=O)c3cccc4c(Cc5cnn(C6CCN(C7CC8(CCC8)C7)CC6)c5)ccc2c34)C(=O)N1` (stereo not drawn) [Compound 288, 3-[2-oxo-6-[[1-(1-spiro[3.3]heptan-2-yl-4-piperidyl)pyrazol-4-yl]methyl]benzo[cd]indol-1-yl]piperidine-2,6-dione], the pIC50 is > 9.00.
As for `CC1(n2cc(Cc3ccc4c5c(cccc35)C(=O)N4C3CCC(=O)NC3=O)cn2)CCN(S(=O)(=O)C2(C)CCC2)CC1` (stereo not drawn) [Compound 233, 3-[6-[[1-[4-methyl-1-(1-methylcyclobutyl)sulfonyl-4-piperidyl]pyrazol-4-yl]methyl]-2-oxo-benzo[cd]indol-1-yl]piperidine-2,6-dione], the pIC50 was > 9.00.
Still for that read-out and setting: in the case of `N#Cc1ccc(N2CCC(Nc3ccc(Cc4ccc5c6c(cccc46)C(=O)N5C4CCC(=O)NC4=O)cc3)CC2)c(F)c1` (stereo not drawn) [Compound 166, 4-[4-[4-[[1-(2,6-dioxo-3-piperidyl)-2-oxo-benzo[cd]indol-6-yl]methyl]anilino]-1-piperidyl]-3-fluoro-benzonitrile] it was > 9.00; in that of `CC(C)(C)C(=O)N1CCC(n2cc(Cc3ccc4c5c(cccc35)C(=O)N4C3CCC(=O)NC3=O)cn2)CC1` (stereo not drawn) [Compound 44, 3-(2-oxo-6-((1-(1-pivaloylpiperidin-4-yl)-1H-pyrazol-4-yl)methyl)benzo[cd]indol-1(2H)-yl)piperidine-2,6-dione], > 9.00; in that of `O=C1CCC(N2C(=O)c3cccc4c(Cc5ccc(CN6CCOC(c7ccc(F)cc7)C6)cc5)ccc2c34)C(=O)N1` (stereo not drawn) [Compound 119, 3-(6-(4-((2-(4-fluorophenyl)morpholino)methyl)benzyl)-2-oxobenzo[cd]indol-1(2H)-yl)piperidine-2,6-dione], > 9.00.

The same test, now with this note: NCIH929.1 cell viability, 96 hr, top concentration 1 μM, 14 points half log titration; read-out: IC50.
With `O=C1CCC(N2C(=O)c3cccc4c(Cc5ccc(CN6CCN(S(=O)(=O)CC(F)(F)F)CC6)cc5)ccc2c34)C(=O)N1` (single isomer, unassigned) [Compound 160, 3-(2-Oxo-6-{4-[4-(2,2,2-trifluoro-ethanesulfonyl)-piperazin-1-ylmethyl]-benzyl}-2H-benzo[cd]indol-1-yl)-piperidine-2,6-dione], the pIC50 is > 9.00.
Regarding `O=C1CCC(N2C(=O)c3cccc4c(Cc5ccc(CN6CCN(c7ccc(Cl)cc7F)CC6)cc5)ccc2c34)C(=O)N1` (single isomer, unassigned) [Compound 255, 3-[6-[[4-[[4-(4-chloro-2-fluoro-phenyl)piperazin-1-yl]methyl]phenyl]methyl]-2-oxo-benzo[cd]indol-1-yl]piperidine-2,6-dione], the negative logarithm of the IC50 (pIC50) was > 9.00.
